Test results published in patent US8377685B2, “Microfluidic device having stable static gradient for analyzing chemotaxis” (priority 2007, dated 2013).
Entries after “also recorded” stand apart in the source; their conditions may differ.

System: primary human neutrophils
Type: cell-based
Procedure: (§1) Each channel was used of one of four different conditions under investigation: 1) Media control, 2) uniform chemo-attractant, 3) chemo-attractant gradient and 4) chemo-attractant gradient with inhibitor. For conditions 1 and 3 each channel network was wick-filled with EGM2MV cell culture media via the source input port. For condition 2 the channel network was wick-filled with EGM2MV cell culture media containing 10 nM formyl-Met-Leu-Phe (fMLP, Sigma-Aldrich). For condition 4 the channel network was wick-filled with EGM2MV cell culture media containing 5 μM Latrunculin B (Sigma-Aldrich). Next, for conditions 3 and 4, a 1.2 μL drop of 1 μM fMLP was added to the source input using a handheld pipette. For condition 4 the fMLP solution also contained Latrunculin B at the same concentration as the media to ensure a uniform concentration of the inhibitor during the study. This volume flowed into the source volume via passive pumping. Lastly, for all four conditions, a 1.5 μL drop of freshly isolated primary neutrophils at roughly at a concentration of roughly 5,000 cells/μL were added to the cell addition port.
as §1, with “Human neutrophil cell culture media and chemo-attractant solution were prepared using conventional protocols. (See, Nuzzi P A at al., Analysis of neutrophil chemotaxis, Methods in Molecular Biology 370:23-26, 2007). Primary human neutrophils were acquired from donors under approved protocol. (See University of Wisconsin Institutional Review Board and National Institutes of Health Protection concerning protection of human subjects regulations). Four channel networks in a polystyrene device were prepared. Each” for “Each”, “used to test” for “used of”, “different conditions:” for “different conditions under investigation:”

| Compound | direction of displacement vectors of cells (preference for migrating up the fMLP gradient) (fMLP gradient with uniform 5 μM Latrunculin B, 52 minutes) | mean total displacement of cells (migration up an fMLP gradient) (fMLP gradient with uniform 5 μM Latrunculin B, cells tracked over 52 minutes) | direction of displacement vectors of cells | mean total displacement of cells |
| --- | --- | --- | --- | --- |
| C/C1=C/C(=O)O[C@@H]2C[C@@H](CC[C@H](C)/C=C\CC1)O[C@@](O)([C@@H]1CSC(=O)N1)C2 [Latrunculin B] | abolished | strongly inhibited |  |  |
| formyl-Met-Leu-Phe [fMLP] |  |  | slight preference for migrating up the channel; also recorded: strong preference for migrating in the direction of increasing concentration of the gradient | migrate further; also recorded: migrated further still |
